Data set [1] concerns GEF16 transformed NIH3T3 cells. As to the kind of experiment: Flow cytometry of DNA content (cell cycle, sub G1). It counts as cell-based, mouse. The procedure:
NIH3T3 cells with or without drug treatments (with Y27632 or the compounds of the invention) were harvested at various time points and cell counts carried out to confirm that 1×10^6 cells were present for each cytometric analysis. Cells were washed with PBS, fixed with 70% ice-cold ethanol, pelleted and DNA stained by incubating the cells with propidium iodide ([…]) (Sigma-Aldrich, Poole, UK) at 4° C. for 45 min. Cells were then washed twice with ice-cold PBS and resuspended in 400 μl of PBS. The DNA content during different phases of the cell cycle was then determined by flow cytometry (BD Biosciences, Oxford, UK). Each profile shown was representative of three separate experiments.

Data set [2] concerns single transformed colony derived GEF16 NIH3T3 cells. Put plainly: Growth of cell populations derived from single GEF16 transformed colonies. Type of data set: cell-based, mouse. The procedure:
(§1) FIG. 5 illustrates that the growth suppressive effects of YA1 on single transformed colony derived GEF16 NIH3T3 cells and polyclonal Ras transformed NIH3T3 cells are more pronounced when these are co-cultured with non-transformed cells. In FIG. 5A single transformed colonies were picked from 10 day cultures of GEF16 polyclonal NIH3T3 cells and expanded. These cells were then seeded at 2.0×10^5 cells per 30 mm dish and treated with 10 μM of YA1 or DMSO control either immediately or following 10 days in culture. Duplicate wells were harvested for flow cytometry. In FIG. 5B a total of 2×10^5 cells per well were plated consisting of increasing numbers of non-transformed vector cells co-cultured with decreasing numbers of single transformed colony derived GEF16 cells. These were treated with 10 μM of either YA1 or DMSO for 10 days. In producing the results shown in FIG. 5C the same co-culture experiment described in connection with FIG. 5B was carried out substituting polyclonal Ras transformed NIH3T3 cells for GEF16 transformed cells.
Single transformed colonies were picked from GEF16 polyclonal NIH3T3 cells and expanded according to the methods described above. Expanded cell populations were plated and a compound of the invention (YA1) added either immediately or after 10 days when the cells were post-confluent.

Data set [3] has as its system polyclonal Ras transformed NIH3T3 cells. As to the kind of experiment: Co-culture of Ras transformed cells with non-transformed cells / Ras colony formation. It counts as cell-based, mouse. The procedure:
as §1, with “In producing the results shown in FIG. 5C the same co-culture experiment described in connection with FIG. 5B was carried out substituting polyclonal Ras transformed NIH3T3 cells for GEF16 transformed cells.” left out
Transformed cell populations were produced by transfection with constructs causing cellular expression of GEF16 or Ras as follows. The full-length GEF16 open reading frame (Accession NM_014448) was PCR amplified, sequence verified and subcloned into the mammalian expression vector pCMVTag (Invitrogen Ltd., Paisley, UK) to produce a construct pCMVTag-GEF16 cDNA. […]

Data set [4] has as its system GEF16 transformed donor cells and non-transformed NIH3T3-vector recipient cells. Put plainly: Flow cytometric LY/PKH67 assay of gap junction intercellular communication (GJIC). It counts as cell-based, mouse. The conditions noted are these: 10 μM, p<0.05, FIG. 6B. The procedure: A novel flow cytometric assay was developed to measure the extent of gap junction intercellular communication (GJIC) using two differentially stained cell populations. Non-transformed recipient NIH3T3-vector cells were stained with PKH67 (Excitation 490, Emission 502, Sigma-Aldrich, Poole, UK) and GEF16 transformed donor cells were stained with Lucifer yellow (LY) (Excitation 427 nm, Emission 517 nm, Invitrogen Ltd., Paisley, UK) as follows.
A 1 ml suspension of 1×10^7 recipient cells in serum-free DMEM was mixed with an equal volume of 4 μM PKH67 solution and incubated for 5 min at room temperature. The reaction was terminated by adding 2 ml serum and incubating for 1 min. Cells were then washed three times with culture medium, and seeded at 1.5×10^6 cells/T-25 flask. […]
LY labelled donor cells were then harvested and 1×10^5 were added to the T25 flask containing the PKH67 labelled recipient cells plus 10 μM YA1 or DMSO control. After incubating for various time intervals, the co-cultured donor and recipient cells were collected and analysed using a BD FACS Aria™ (BD Biosciences, Oxford, UK). A 405 nm laser was used for LY excitation and emission was measured using a 515 nm to 545 nm band pass filter. GJIC between co-cultured donor and recipient cells was quantified as the percentage of LY and PKH67 double labelled cells.

Data set [5] relates to polyclonal GEF16 transfected NIH3T3 cells. As to the kind of experiment: Transformed colony forming assay (Toluidine blue).
Method: Following this incubation period the compound was then removed from the culture media and cells maintained in normal growth media for a further 10 days before the photographs shown were taken.
In FIG. 4A polyclonal GEF16 transfected cells were seeded at 2.0×10^5 cells per 30 mm dish and incubated over night. […] After a further 10 days culture in the absence of inhibitors the cells were stained with Toluidine blue and photographed to produce the images shown. […] These were incubated for 3 or 6 days then stained with Toluidine blue before being photographed.
Medium (containing the compound of interest—either Y27632 or the selected compounds of the invention—or DMSO control) was changed every 2 days. Formation of foci was analysed by Toluidine blue (Sigma-Aldrich, Poole, UK) staining after 10 days growth post confluence. […] Each assay was carried out in triplicate and the results shown are representative of at least three separate experiments.

“Also recorded” adds a separate entry of the source.

For `CC(C)(C)OC(=O)NCc1ccc(C(=O)Nc2ccncc2)cc1` [YA1, 4-(Pyridin-4-ylcarbamoyl)benzylcarbamic acid tert-butyl ester], the “cell cycle / apoptotic sub G1 population” value was “no evidence of alterations in cell cycle or the accumulation of an apoptotic sub G1 population” in data set [1] (polyclonal GEF16 cells, 10 μM, FIG. 3C); “no effect on the cell cycle and no apoptotic sub G1 population is seen” in data set [1] (single colony derived GEF16 cells, treated pre or post confluence). For the same compound, the “effect on single colony derived GEF16 cells, added to post-confluent cultures” value in data set [2] (10 μM, added after 10 days in culture) is reported as “no discernible effect when compared to controls”. Also, in data set [2] (10 μM, added immediately), the “saturation density of single colony derived GEF16 cells, added to low density cultures” value is “modest effect when added to low density cultures”. The “effect on single colony derived GEF16 transformed cells grown in the absence of non-transformed cells” value in data set [2] (FIG. 5A) is reported as “little or no effect”. Also, the “growth suppression / colony formation of Ras transformed NIH3T3 cells” value in data set [3] (10 μM, 10 days, co-culture with non-transformed cells) is given as “same growth suppressive effects on Ras transformed NIH3T3 cell colonies as with GEF16 transformed cells; also recorded: highly effective at preventing the formation of Ras transformed NIH3T3 colonies”. For the same compound, the “contact inhibition and polarity of Ras transformed cells (phase contrast images)” value in data set [3] (YA1 treated) was “regain both contact inhibition and polarity”. The “number of double LY/PKH67 labelled cells compared to DMSO control” value in data set [4] is “approximately 3 times”. Moreover, the “number of transformed foci after transient exposure and withdrawal” value in data set [5] (10 μM for 2, 4, 6, 8, 10 days, then 10 day chase in normal media) was “progressive decrease in the number of transformed foci associated with increased time of exposure”. In data set [5] (10 μM for 2-10 days, re-seeded at 2×10^5, 10 day chase without inhibitor), the “transformed focus formation after treatment, re-seeding and chase” value was “able to suppress transformed focus formation”. Moreover, the “formation of GEF16 transformed colonies” value in data set [5] (10 μM, 10 days, post confluent cultures) is “able to block transformed GEF16 colony formation to an extent comparable to the inhibition achieved using Y27632; also recorded: greatest ability to inhibit GEF16 transformed colonies”. Besides, the “effect on pre-formed transformed colonies” value in data set [5] (colonies formed for 10 days, then 10 μM or 20 μM for 3 and 6 days) is “marked reduction in their numbers”.

The values are drawn from patent publication US20130046098A1, “KINASE INHIBITORS” (THE UNIVERSITY OF MANCHESTER, priority 2009, published 2013).
